Experimental data taken from patent publication US20080039442A1, “Compounds With Kv4 Ion Channel Activity” (Devgen NV, priority 2004, published 2008).

Molecular target: T1, human Kv4.3/KChIP2.2 potassium channel (Homo sapiens, UniProt Q9UK17)
T1 construct: expressed in transfected cells
T1 sequence (Q9UK17 1-655): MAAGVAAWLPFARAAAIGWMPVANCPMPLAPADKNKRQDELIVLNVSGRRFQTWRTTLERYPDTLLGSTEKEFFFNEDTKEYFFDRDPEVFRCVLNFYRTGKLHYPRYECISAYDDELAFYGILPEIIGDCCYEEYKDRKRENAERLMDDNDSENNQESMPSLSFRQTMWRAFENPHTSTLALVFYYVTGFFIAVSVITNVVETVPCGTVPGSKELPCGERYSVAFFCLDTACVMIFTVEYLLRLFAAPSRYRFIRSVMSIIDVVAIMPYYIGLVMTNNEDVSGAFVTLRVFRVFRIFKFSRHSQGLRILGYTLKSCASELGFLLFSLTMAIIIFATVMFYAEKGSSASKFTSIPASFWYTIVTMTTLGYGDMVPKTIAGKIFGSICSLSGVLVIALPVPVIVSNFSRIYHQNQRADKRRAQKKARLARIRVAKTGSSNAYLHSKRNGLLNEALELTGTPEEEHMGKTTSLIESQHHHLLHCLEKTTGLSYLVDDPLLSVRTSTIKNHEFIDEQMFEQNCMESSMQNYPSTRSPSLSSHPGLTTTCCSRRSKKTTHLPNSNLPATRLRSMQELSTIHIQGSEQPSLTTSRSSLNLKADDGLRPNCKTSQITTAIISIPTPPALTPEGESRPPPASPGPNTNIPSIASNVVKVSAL
T1 sequence (Q9NS61 1-270 partner): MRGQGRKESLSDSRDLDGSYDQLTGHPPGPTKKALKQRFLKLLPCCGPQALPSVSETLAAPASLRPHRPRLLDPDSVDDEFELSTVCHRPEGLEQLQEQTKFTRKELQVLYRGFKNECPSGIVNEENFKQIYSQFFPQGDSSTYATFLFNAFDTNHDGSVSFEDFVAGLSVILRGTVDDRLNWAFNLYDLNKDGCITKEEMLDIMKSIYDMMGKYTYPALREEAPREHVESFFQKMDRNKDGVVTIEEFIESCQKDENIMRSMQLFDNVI
Experiment: Whole cell patch clamp, CHO-K1 cells stably expressing Kv4.3/KChIP2.2
Format: cell-based
Details: CHO-K1; 1 μM; read-out: Kv4.3 charge in %: remaining current measured after application of the compound and relative to the blank
Protocol: For this experiment, a recombinant CHO-K1 cell line stably expressing the human Kv4.3/KChIP2.2 potassium channel was used.
Protocol B: The cells were cultured in 94 mm culture dishes under the culturing conditions of 5% CO2 and 37° C. Subculturing was performed every 3-4 days, by removing the media and then rising the dish with 8 ml PBS (phosphate buffered saline). The PBS was removed and 1 ml Trypsin/EDTA was added to the cells. The cells were incubated about 2 min at 37° C. or 5 min at room temperature and then the dish was rapped to detach and singularize the cells. To inactivate the enzyme 9 ml of media was added and the solution was pipetted up and down to break up clumps of cells. Part of the suspension was then transferred to a new 94 mm dish and media was added to a final volume of 8 ml. If necessary the cells could be seeded onto 35 mm or 94 mm dishes (2 ml media per 35 mm dish and 8 ml media per 94 mm dish). The media was changed every 2-3 days. The media used was the solution for culturing the cells described above. For stable cells antibiotic G418, Hygromycin, Blasticidin, or Zeocin were not added.
The preparation of cells for electrophysiological experiments was performed as described in protocol C hereunder.
Protocol C: The transfected cells and stable cells were transferred from 35 mm cell culture dishes onto coverslips using cold PBS: The media was removed and 0.3 ml of PBS (4-10° C.) was added. The cells were incubated 5 min at room temperature. The dish was rapped to detach and singularize the cells and 1.7 ml media was added and the solution pipetted up and down to break up clumps of cells. Part of the cell suspension was then transferred to a 35 mm dish with coverslips and media. The transfected cells and stable cells could also be transferred from 35 mm cell culture dishes onto coverslips using trypsin: The media was removed and the dish rinsed with 3 ml PBS. The PBS was removed and 0.3 ml 1× Trypsin/EDTA was added and the cells incubated 5 min at room temperature. The dish was rapped to detach and singularize the cells and 1.7 ml media was added and the solution pipetted up and down to break up clumps of cells. Part of the cell suspension was then transferred to a 35 mm dish with coverslips and media.
10 mM stock solutions of the compounds were prepared in DMSO. Solutions of the compounds were prepared by dilution of stock solution in bath solution. If the required stock solution volume was theoretically below 1 μl, bath solutions with higher compound concentration were used for dilution. The maximal DMSO concentration during experiments was 0.1% (v/v).
For patch clamp experiments, the following solutions in demineralized water as vehicle were used (concentration in mM).
Bath (external) solution: 4 KCl, 135 NaCl, 2 CaCl2, 1 MgCl2, 10 D(+)-Glucose, 5 HEPES, pH 7.4 (NaOH).
Pipette (internal) solution: 130 KCl, 1 MgCl2, 10 EGTA, 5 Na2ATP, 5 HEPES, pH 7.4 (KOH).
Experiments were performed using a patch clamp set-up.
Measurements were performed at room temperature (20-25° C.). […] Each cell acted as its own control. The effect of compounds on Kv4.3/KChIP2.2 mediated currents was investigated at one concentration ([…]) with two replicates each (c=1, n=2).
The test protocols are illustrated in FIG. 1 and Table 4. […] Each test protocol consisted of 4 segments.
Subsequently, 14 test pulses (series 1; FIG. 1b and Table 4b) were applied at 0.1 Hz under constant superfusion with bath solution. The protocol was initiated by a voltage jump to −100 mV (400 ms) to achieve full inactivation. Then the Kv4.3/KChIP2.2 channels were transferred to the open state by depolarization to +40 mV for 300 milliseconds (activation). Only cells generating current amplitudes between 1 nA and 50 nA were used for the experimental procedure. No or negligible rundown was observed.
Then, 36 test pulses (series 2) were applied at 0.1 Hz under constant superfusion with the compound dissolved in bath solution. […]

remaining activity at 1 µM | SMILES
89% | COc1ccc(CNC(=O)c2cc3ccccc3o2)c(OC)c1 [Compound 12, benzofuran-2-carboxylic acid 2,4-dimethoxy-benzylamide]
83% | COc1ccc(CC(=O)c2cc3ccccc3o2)c(OC)c1 [Compound 23, 1-benzofuran-2-yl-2-(2,4-dimethoxy-phenyl)-ethanone]
87% | O=C(NCc1ccccc1)c1cc2cc(Cl)ccc2o1 [Compound 47, 5-chloro-benzofuran-2-carboxylic benzylamide]
80% | Cc1ccc(C2CCN(C(=O)c3cc4cc(Cl)ccc4o3)CC2)cc1 [Compound 98, (5-chloro-benzofuran-2-yl)-(4-p-tolyl-piperidin-1-yl)-methanone]
59% | Cc1c(C(=O)N2CCCCC2Cc2ccccc2)oc2ccc(Cl)cc12 (centres unmarked) [Compound 106, (2-benzyl-piperidin-1-yl)-(5-chloro-3-methyl-benzofuran-2-yl)-methanone]

Same assay, conditions: CHO-K1; 1 μM; read-out: Kv4.3 peak in %: remaining peak height measured after application of the compound and relative to the blank

remaining activity at 1 µM | SMILES
97% | COc1ccc(CNC(=O)c2cc3ccccc3o2)c(OC)c1 [Compound 12, benzofuran-2-carboxylic acid 2,4-dimethoxy-benzylamide]
99% | COc1ccc(CC(=O)c2cc3ccccc3o2)c(OC)c1 [Compound 23, 1-benzofuran-2-yl-2-(2,4-dimethoxy-phenyl)-ethanone]
95% | O=C(NCc1ccccc1)c1cc2cc(Cl)ccc2o1 [Compound 47, 5-chloro-benzofuran-2-carboxylic benzylamide]
97% | Cc1ccc(C2CCN(C(=O)c3cc4cc(Cl)ccc4o3)CC2)cc1 [Compound 98, (5-chloro-benzofuran-2-yl)-(4-p-tolyl-piperidin-1-yl)-methanone]
87% | Cc1c(C(=O)N2CCCCC2Cc2ccccc2)oc2ccc(Cl)cc12 (centres unmarked) [Compound 106, (2-benzyl-piperidin-1-yl)-(5-chloro-3-methyl-benzofuran-2-yl)-methanone]

Same assay, conditions: Table 12; read-out: Kv4.3 charge IC50

IC50 | SMILES
1330 nM | Cc1ccc2[nH]cc(CCNC(=O)c3cc4cc(Cl)ccc4o3)c2c1 [Compound 3, 5-chloro-benzofuran-2-carboxylic acid [2-(5-methyl-1H-indole-3-yl)-ethyl]-amide]
890 nM | O=C(c1ccc(Cl)cc1)C1CCN(C(=O)c2cc3cc(Cl)ccc3o2)CC1 [Compound 7, (5-chloro-benzofuran-2-yl)-[4-(4-chloro-benzoyl)-piperidin-1-yl]-methanone]

System: not given
Experiment: not given
Details: not given

melting point | SMILES
211.2 to 215.6 °C | O=C(N[C@H](C(=O)O)c1ccccc1)c1cc2cc(Cl)ccc2o1 [Compound 41, (S)-[(5-chloro-benzofuran-2-carbonyl)-amino]-phenyl-acetic acid]
136.3 to 138.2 °C | CC(NC(=O)c1cc2cc(Cl)ccc2o1)c1ccccc1 (centres unmarked) [Compound 57, 5-chloro-benzofuran-2-carboxylic acid (1-phenyl-ethyl)-amide]
118.5 to 120.7 °C | CC[C@@H](NC(=O)c1cc2cc(Cl)ccc2o1)c1ccccc1 [Compound 58, 5-chloro-benzofuran-2-carboxylic acid ((R)-1-phenyl-propyl)-amide]
110.1 to 111.3 °C | CC[C@H](NC(=O)c1cc2cc(Cl)ccc2o1)c1ccccc1 [Compound 59, 5-chloro-benzofuran-2-carboxylic acid ((S)-1-phenyl-propyl)-amide]
174.7 to 177.2 °C | CSc1ccccc1CNC(=O)c1cc2cc(Cl)ccc2o1 [Compound 60, 5-chloro-benzofuran-2-carboxylic acid 2-methylsulfanyl-benzylamide]
141.8 to 143 °C | Cc1ccccc1CNC(=O)c1cc2cc(Cl)ccc2o1 [Compound 69, 5-chloro-benzofuran-2-carboxylic acid 2-methyl-benzylamide]
148.4 to 149.4 °C | Cc1cccc(CNC(=O)c2cc3cc(Cl)ccc3o2)c1 [Compound 70, 5-chloro-benzofuran-2-carboxylic acid 3-methyl-benzylamide]
129.8 to 132.8 °C | O=C(NCc1ccccc1-c1ccccc1)c1cc2cc(Cl)ccc2o1 [Compound 72, 5-chloro-benzofuran-2-carboxylic acid (biphenyl-2-ylmethyl)-amide]
130.4 to 131 °C | O=C(NCc1cccc(-c2ccccc2)c1)c1cc2cc(Cl)ccc2o1 [Compound 73, 5-chloro-benzofuran-2-carboxylic acid (biphenyl-3-ylmethyl)-amide]
163.1 to 166.2 °C | O=C(NCc1ccncc1)c1cc2cc(Cl)ccc2o1 [Compound 81, 5-chloro-benzofuran-2-carboxylic acid (pyridin-4-ylmethyl)-amide]

The remaining lines, values behind:

SMILES | melting point
COc1ccc(CNC(=O)c2cn(Cc3ccccc3)c3ccccc23)c(OC)c1 | 118.8 to 120.4 °C
O=C(NCc1ccc(F)c(C(F)(F)F)c1)c1cc2ccccc2o1 [Compound 50, benzofuran-2-carboxylic acid 4-fluoro-3-trifluoromethyl-benzylamide] | 89.5 to 91.6 °C
CSc1ccc(CNC(=O)c2cc3cc(Cl)ccc3o2)cc1 [Compound 61, 5-chloro-benzofuran-2-carboxylic acid 4-methylsulfanyl-benzylamide] | 159 to 161 °C
COC(=O)c1cccc(CNC(=O)c2cc3cc(Cl)ccc3o2)c1 [Compound 65, 5-{[(5-chloro-benofuran-2-carbonyl)-amino]-methyl}-benzoic acid methyl ester] | 154 to 155.6 °C
CN(C)C(=O)c1cccc(CNC(=O)c2cc3cc(Cl)ccc3o2)c1 [Compound 66, 5-chloro-benzofuran-2-carboxylic acid 3-dimethylcarbamoyl-benzylamide] | 105.1 to 109.4 °C
CN(C)S(=O)(=O)c1ccc(CNC(=O)c2cc3cc(Cl)ccc3o2)cc1 [Compound 67, 5-chloro-benzofuran-2-carboxylic acid 4-dimethylsulfamoyl-benzylamide] | 163.9 to 166.6 °C
O=C(NCc1ccc(Oc2ccccc2)cc1)c1cc2cc(Cl)ccc2o1 [Compound 68, 5-chloro-benzofuran-2-carboxylic acid 4-phenoxy-benzylamide] | 93.6 to 95.5 °C
O=C(NCc1ccc(Br)cc1)c1cc2cc(Cl)ccc2o1 [Compound 77, 5-chloro-benzofuran-2-carboxylic acid 4-bromo-benzylamide] | 192.3 to 193.8 °C
CS(=O)(=O)c1ccc(CNC(=O)c2cc3cc(Cl)ccc3o2)cc1 [Compound 79, 5-chloro-benzofuran-2-carboxylic acid 4-methanesulfonyl-benzylamide] | 187.6 to 189.1 °C
N#Cc1ccc(CNC(=O)c2cc3cc(Cl)ccc3o2)cc1 [Compound 80, 5-chloro-benzofuran-2-carboxylic acid 4-cyano-benzylamide] | 226.6 to 230.4 °C
